These results are taken from paper PMC11836537, “An isofagomine analogue with an amidine group in the 1,6-position” (Royal Society Open Science, 2025).

Molecules are shown by their SMILES. Read-outs that look alike come from different tables or passages of the source.

The conditions of data set [1]: cited from earlier work.
Data set [2] concerns the target T1, α-mannosidase (Canavalia ensiformis, UniProt C0HJB3).
T1 sequence (C0HJB3 1-981): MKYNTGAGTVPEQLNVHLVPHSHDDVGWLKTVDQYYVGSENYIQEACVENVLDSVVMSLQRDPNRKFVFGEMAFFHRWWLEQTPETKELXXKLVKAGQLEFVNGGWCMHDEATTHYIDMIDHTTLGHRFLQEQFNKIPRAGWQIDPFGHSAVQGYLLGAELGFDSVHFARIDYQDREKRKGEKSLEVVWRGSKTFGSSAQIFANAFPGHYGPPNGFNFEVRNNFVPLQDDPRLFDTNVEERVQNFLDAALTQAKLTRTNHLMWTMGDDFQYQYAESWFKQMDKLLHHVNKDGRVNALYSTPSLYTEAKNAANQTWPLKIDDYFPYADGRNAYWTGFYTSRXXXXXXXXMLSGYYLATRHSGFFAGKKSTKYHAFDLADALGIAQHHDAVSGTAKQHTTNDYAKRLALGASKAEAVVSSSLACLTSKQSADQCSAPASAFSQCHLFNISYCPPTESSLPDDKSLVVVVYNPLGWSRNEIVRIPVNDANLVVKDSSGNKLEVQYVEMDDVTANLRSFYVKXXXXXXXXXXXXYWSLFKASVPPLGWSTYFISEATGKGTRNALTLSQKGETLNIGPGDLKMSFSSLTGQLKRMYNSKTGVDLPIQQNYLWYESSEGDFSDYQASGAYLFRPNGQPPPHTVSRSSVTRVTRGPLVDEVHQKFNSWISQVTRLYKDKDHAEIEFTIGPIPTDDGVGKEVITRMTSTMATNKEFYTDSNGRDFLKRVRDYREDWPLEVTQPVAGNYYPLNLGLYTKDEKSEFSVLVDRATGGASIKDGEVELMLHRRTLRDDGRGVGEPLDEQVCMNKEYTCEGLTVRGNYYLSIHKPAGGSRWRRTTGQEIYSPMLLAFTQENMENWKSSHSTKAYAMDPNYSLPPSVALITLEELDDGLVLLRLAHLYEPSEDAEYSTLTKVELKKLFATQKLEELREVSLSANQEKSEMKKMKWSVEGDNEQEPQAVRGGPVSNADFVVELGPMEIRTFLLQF
The settings on record: α-mannosidase from jack beans, pH 5.6; cited from earlier work.

Data set [3] has as its target T2, α-galactosidase (Coffea arabica, UniProt Q42656). The arrangement: key to inhibition: NI = no inhibition. Particulars: α-galactosidase from green coffee beans, pH 6.8; cited from earlier work.
The target in data set [4] is T3, β-galactosidase (Aspergillus oryzae, UniProt Q2UCU3). Particulars: β-galactosidase from Aspergillus oryzae, pH 6.8; cited from earlier work.
In data set [5] the target is β-glucosidase. Particulars: cited from earlier work.
The next data set deals with α-glucosidase. Put plainly: glycosidase inhibition, α-glucosidase. The settings on record: α-glucosidase from Saccharomyces cerevisiae, pH 6.8. The class given is biochemical. An excerpt:
(§1) The glycosidase inhibitory activities (IC50 (µM)) of amidines 5 and 6 on a panel of six glycosidases are presented in table 1 and compared with structurally related isofagomine (3) and amidine 4.

For data set [6], the target named is T1, α-mannosidase. Put plainly: glycosidase inhibition, α-mannosidase. Particulars: α-mannosidase from jack beans, pH 5.6. In kind it is biochemical.
Excerpt: as §1

Data set [7] deals with β-galactosidase (Escherichia coli, UniProt P00722). Put plainly: glycosidase inhibition, β-galactosidase (Escherichia coli). The class given is biochemical.
Excerpt: as §1

Data set [8] deals with β-glucosidase. Kind of data set: glycosidase inhibition, β-glucosidase. The class given is biochemical. The settings on record: β-glucosidase from almonds, pH 6.8.
Excerpt: as §1

Data set [9] is described as follows: pKa determination by NMR titration in D2O. In kind it is physicochemical. The settings on record: for pH* at which degradation started: during NMR titration in D2O; for pKa: D2O. An excerpt: The pKa values for azasugars have been determined by NMR spectroscopy in other studies. This methodology was also applied in this study to determine the pKa value of 6. […] The sigmoidal curve is missing points at high pH* values (greater than 11) because 6 started degrading at roughly pH* 10.5. Recording of both a ^1H NMR and ^13C HSQC spectra at each titration point allowed us to track the changes in chemical shifts at pH levels higher than where the degradation initially started. The pKa of amidine 5 was determined at even lower accuracy than for 6, because it started degrading at roughly pH* 9.4, where there is no indication of 5 being deprotonated.

In data set [10] the target is T2, α-galactosidase. Kind of data set: glycosidase inhibition, α-galactosidase. The class given is biochemical.
Excerpt: as §1

The subject of data set [11] is all tested enzymes (panel of six glycosidases). Kind of data set: glycosidase inhibition, whole panel of six glycosidases. In kind it is biochemical. The settings on record: for glycosidase inhibition in words: all enzymes in the panel.
Excerpt: as §1

The target of data set [12] is T3, β-galactosidase. Kind of data set: glycosidase inhibition, β-galactosidase (Aspergillus oryzae). In kind it is biochemical.
Excerpt: as §1

Setting [13] is: β-glucosidase from almonds, pH 6.8.

T2 sequence (Q42656 16-378): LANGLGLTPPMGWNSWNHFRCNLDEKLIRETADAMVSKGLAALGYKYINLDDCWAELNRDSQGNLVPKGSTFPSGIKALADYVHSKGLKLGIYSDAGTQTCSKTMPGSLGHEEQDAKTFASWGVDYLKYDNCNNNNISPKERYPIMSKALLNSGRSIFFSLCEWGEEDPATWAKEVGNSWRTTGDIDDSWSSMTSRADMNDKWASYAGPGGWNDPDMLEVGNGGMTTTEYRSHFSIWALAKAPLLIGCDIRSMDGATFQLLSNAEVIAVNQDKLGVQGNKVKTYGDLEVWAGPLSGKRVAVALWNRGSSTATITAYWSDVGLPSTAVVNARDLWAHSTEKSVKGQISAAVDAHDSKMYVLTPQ
T3 sequence (Q2UCU3 19-1005): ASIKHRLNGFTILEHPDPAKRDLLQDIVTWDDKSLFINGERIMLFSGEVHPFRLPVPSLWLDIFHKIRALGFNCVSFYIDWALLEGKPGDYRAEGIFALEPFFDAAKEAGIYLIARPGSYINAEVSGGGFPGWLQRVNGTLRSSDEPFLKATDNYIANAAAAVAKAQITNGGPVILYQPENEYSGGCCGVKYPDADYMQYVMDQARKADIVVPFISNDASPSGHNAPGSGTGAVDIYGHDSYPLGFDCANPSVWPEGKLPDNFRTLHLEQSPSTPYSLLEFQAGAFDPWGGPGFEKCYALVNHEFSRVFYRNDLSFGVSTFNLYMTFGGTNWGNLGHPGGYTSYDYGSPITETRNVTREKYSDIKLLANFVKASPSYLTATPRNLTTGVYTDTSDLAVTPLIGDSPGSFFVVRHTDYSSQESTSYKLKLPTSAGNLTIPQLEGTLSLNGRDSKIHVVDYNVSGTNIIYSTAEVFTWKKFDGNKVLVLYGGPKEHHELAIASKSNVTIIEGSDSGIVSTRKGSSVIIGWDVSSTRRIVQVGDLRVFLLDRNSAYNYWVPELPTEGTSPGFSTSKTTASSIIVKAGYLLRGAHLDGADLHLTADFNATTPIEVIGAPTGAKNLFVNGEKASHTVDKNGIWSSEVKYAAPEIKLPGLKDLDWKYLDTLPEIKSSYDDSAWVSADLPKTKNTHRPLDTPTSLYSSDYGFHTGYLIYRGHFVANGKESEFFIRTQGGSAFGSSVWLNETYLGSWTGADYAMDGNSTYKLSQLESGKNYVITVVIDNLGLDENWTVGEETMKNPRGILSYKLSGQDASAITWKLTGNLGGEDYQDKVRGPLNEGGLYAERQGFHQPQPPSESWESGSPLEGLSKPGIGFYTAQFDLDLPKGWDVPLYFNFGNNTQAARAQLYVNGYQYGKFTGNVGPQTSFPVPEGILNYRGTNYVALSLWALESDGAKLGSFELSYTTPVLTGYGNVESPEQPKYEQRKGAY
Sequence of β-galactosidase (Escherichia coli, UniProt P00722) (P00722 2-1024 limits assumed): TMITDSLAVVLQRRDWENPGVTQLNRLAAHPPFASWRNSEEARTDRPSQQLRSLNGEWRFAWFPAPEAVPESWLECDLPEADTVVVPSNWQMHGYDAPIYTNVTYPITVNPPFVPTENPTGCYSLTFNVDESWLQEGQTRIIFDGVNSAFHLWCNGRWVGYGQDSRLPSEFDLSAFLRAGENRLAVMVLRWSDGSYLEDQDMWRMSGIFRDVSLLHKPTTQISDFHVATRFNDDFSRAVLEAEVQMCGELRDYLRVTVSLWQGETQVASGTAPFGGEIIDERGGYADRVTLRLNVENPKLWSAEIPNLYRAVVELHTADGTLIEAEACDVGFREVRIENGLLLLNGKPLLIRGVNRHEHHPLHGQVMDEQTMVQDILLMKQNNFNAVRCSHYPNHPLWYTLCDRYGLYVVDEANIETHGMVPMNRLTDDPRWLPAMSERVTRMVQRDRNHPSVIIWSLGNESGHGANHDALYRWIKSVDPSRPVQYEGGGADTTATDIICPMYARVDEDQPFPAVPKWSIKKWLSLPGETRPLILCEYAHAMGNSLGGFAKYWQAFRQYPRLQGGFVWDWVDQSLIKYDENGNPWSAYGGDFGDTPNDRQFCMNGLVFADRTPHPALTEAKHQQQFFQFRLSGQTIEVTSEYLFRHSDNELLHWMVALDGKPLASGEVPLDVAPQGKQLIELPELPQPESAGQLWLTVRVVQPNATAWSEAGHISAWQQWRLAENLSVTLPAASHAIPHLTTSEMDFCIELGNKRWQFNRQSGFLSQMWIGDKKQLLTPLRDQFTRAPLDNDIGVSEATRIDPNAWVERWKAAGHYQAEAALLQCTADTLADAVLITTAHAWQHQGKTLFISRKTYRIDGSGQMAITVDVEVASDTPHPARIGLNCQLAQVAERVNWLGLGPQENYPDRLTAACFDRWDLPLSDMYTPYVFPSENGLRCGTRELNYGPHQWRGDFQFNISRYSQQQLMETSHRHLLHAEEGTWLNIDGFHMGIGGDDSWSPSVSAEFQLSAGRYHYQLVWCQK

By pKa is commonly meant the pH at which an ionisable group is half protonated. Take `NC1=N[C@H](CO)[C@@H](O)[C@H](O)[C@H]1O` [compound 2, ᴅ-glucoamidine]: the pKa in data set [1] is recorded as not below 10.5. The “fold stronger base than 1” value in [1] (compared with 1-deoxynojirimycin (1)) is “roughly 7900 fold”.
The term IC50 denotes the point on the concentration scale where inhibition reaches its midpoint. One may read the Ki as the dissociation constant of the complex between target and ligand, obtained from inhibition or displacement. In the case of `OC[C@H]1CNC[C@@H](O)[C@@H]1O` [compound 3, isofagomine], the figures for the IC50 on α-mannosidase [2], on α-galactosidase [3] and at β-galactosidase [4] were 250 µM, more than 2000 µM and 270 µM, respectively. Also, the Ki on β-glucosidase [5] (almond β-glucosidase) and at β-glucosidase [5] (setting [13]) was 0.11 µM in each case.
Regarding `N=C1NC[C@H](CO)[C@@H](O)[C@@H]1O` [compound 4], the Ki at α-mannosidase [2] was 0.75 µM; at β-galactosidase [4], 17400 µM; at β-glucosidase [5] (setting [13]) it was 450 µM. Further, the inhibition result at α-galactosidase [3] is reported as “NI^g,i”.
Consider `N=C1NC[C@@H](O)[C@H](O)[C@H]1CO` [compound 5], for which the IC50 was more than 50 µM against α-glucosidase; more than 50 µM against α-mannosidase [6]; more than 50 µM on β-galactosidase [7] (β-galactosidase from Escherichia coli, pH 6.8, read-out: IC50); more than 50 µM at β-glucosidase [8]; more than 50 µM on α-galactosidase [10] (α-galactosidase from green coffee beans, pH 6.8, read-out: IC50); more than 50 µM in [11] (all tested enzymes, read-out: IC50 against all tested enzymes). The concentration for half-maximal inhibition (IC50) at β-galactosidase [12] (β-galactosidase from Aspergillus oryzae, pH 6.8, read-out: IC50) was more than 50 µM. In data set [9], the “pH* at which degradation started” value is on record as approximately 9.4. Also, the “glycosidase inhibition in words” value in data set [11] is reported as “very poor inhibitor”.
`N=C1[C@H](CO)[C@@H](O)[C@H](O)CN1Cc1ccccc1` [compound 6]: the IC50 against α-glucosidase, against α-mannosidase [6], on β-galactosidase [7], against β-glucosidase [8], at α-galactosidase [10] and on β-galactosidase [12] was more than 50 µM throughout. For the same molecule, the pKa in data set [9] (inflection point of 2-Ha chemical shift versus pH* (pH measured in D2O), read-out: pKa*) was more than 11; in data set [9] (pKa* corrected with a correction factor, read-out: pKa (corrected)), more than 10.6. The “pH* at which degradation started” value in data set [9] is approximately 10.5. Besides, the “glycosidase inhibition in words” value in [11] is reported as “very weak inhibitor”.
